Reference: patent publication US8901312B2, “Cyclic compound, method for producing cyclic compound, and method for modifying biological molecule” (JNC Corporation, priority 2010, dated 2014)
Like-named read-outs stand apart in the source and are kept apart here.

Assays:
[1] = system: azido-glycoconjugates on the surface of HEK293 cells; experiment: Fluorescence labeling of azido-glycoconjugates on the surface of living cells; type: cell-based
[2] = system: azido-HaloTag protein (GST-HaloTag protein on GSH-Sepharose resin); experiment: Fluorescence labeling of azido-HaloTag protein by SPDC reaction, SDS-PAGE fluorescence imaging; type: biochemical
HEK293 cells = experiment: Cytotoxicity assay in living cells; type: cell-based; conditions: 0 to 80 μM, incubation overnight
Procedure: Finally, cytotoxicity assay of diyne 3 was performed in living cells. HEK293 cells were incubated and diyne 3 was added to the cells in a concentration of 0 to 80 μM, followed by incubation overnight. Morphological images of the cells after incubation, which were taken under a phase-contrast microscope and visualized with Adobe Photoshop CS2, are shown in FIG. 10.

Compound	fluorescence labeling of cell surface azido-glycoconjugates (result in words) [1]	reaction time at which labeling efficiency became maximum ([1]; 40 μM diyne 3, HEK293 cells with azido-glycoconjugates, 0 to 48 minutes)	fluorescence labeling of cell surface azido-glycoconjugates (result in words) ([1]; HEK293 cells cultured with Ac4ManNAz)	fluorescence labeling efficiency of azido-HaloTag protein ([2]; sequential SPDC reaction: diyne 3, wash, then TESRA-PEO3-azide (9))	total labeling efficiency of TESRA-labeled HaloTag protein ([2]; simultaneous SPDC reaction with TESRA-PEO3-azide (9), relative to TESRA-HaloTag ligand (10) labeling taken as almost 100%)	cytotoxicity (cell morphology, phase-contrast microscope) (HEK293 cells)
O=C(NCCNC(=S)Nc1ccc2c(c1)C(=O)OC21c2ccc(O)cc2Oc2cc(O)ccc21)OC1Cc2ccccc2C#Cc2ccccc21 (stereo not drawn) [monoyne 22, 1-[2-{(11,12-didehydro-5,6-dihydrodibenzo[a,e]cycloocten-5-yl)oxycarbonylamino}ethyl]-3-(5-fluoresceinyl)thiourea]	substantial difference in fluorescence labeling efficiency between the SPDC reaction and the single click reaction was hardly observed	–	–	–	–	–
C1#Cc2ccccc2C#Cc2ccccc21 [diyne 3, sym-dibenzo-1,5-cyclooctadiene-3,7-diyne]	–	approximately 20 minutes	a reliable fluorescence signal was detected	approximately 45%	~40%	did not show cytotoxicity
